Test system: 485368-065-R3-J5-PDC spheroids with HUVEC/MSC, viability
Assay: Anticancer human tumor 485368-065-R3-J5-PDC patient-derived pancreatic carcinoma cell line growth inhibition [RAS]
Details: for IC50: curve of first compound; for viability, T/C: stronger effect = lower value
Outline: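 Tumour cells grown as complex spheroids with HUVEC endothelial cells and mesenchymal stem cells, treated with RAS pathway inhibitor combinations. Each agent spans half-log steps from near clinical Cmax, or 10 microM where Cmax is unknown.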
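Also: spheroids exposed to agents for seven days before readout.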

SMILES: C=CC(=O)Nc1cc(Nc2nccc(-c3cn(C)c4ccccc34)n2)c(OC)cc1N(C)CCN(C)C + CCn1c(-c2cc(N3CCN(C)CC3)cnc2C(C)OC)c2c3cc(ccc31)-c1csc(n1)CC(NC(=O)C1CC1C)C(=O)N1CCCC(N1)C(=O)OCC(C)(C)C2
- IC50 (second compound 0.000949 µM): < 3.16 nM
- IC50 (second compound 0.003 µM): < 3.16 nM
- IC50 (second compound 0.00949 µM): < 3.16 nM
- IC50 (second compound 0.03 µM): < 3.16 nM
- IC50 (second compound 0.0949 µM): < 3.16 nM
- IC50 (second compound 0.3 µM): < 3.16 nM
- viability, T/C (second compound 0.000949 µM, first compound 0.00316 µM): 38.2%
- viability, T/C (second compound 0.000949 µM, first compound 0.01 µM): 34.1%
- viability, T/C (second compound 0.000949 µM, first compound 0.0316 µM): 30.4%
- viability, T/C (second compound 0.000949 µM, first compound 0.1 µM): 28.6%
- viability, T/C (second compound 0.000949 µM, first compound 0.316 µM): 25.3%
- viability, T/C (second compound 0.000949 µM, first compound 1 µM): 17.8%
- viability, T/C (second compound 0.003 µM, first compound 0.00316 µM): 21.1%
- viability, T/C (second compound 0.003 µM, first compound 0.01 µM): 19.9%
- viability, T/C (second compound 0.003 µM, first compound 0.0316 µM): 18.6%
- viability, T/C (second compound 0.003 µM, first compound 0.1 µM): 14.6%
- viability, T/C (second compound 0.003 µM, first compound 0.316 µM): 13.4%
- viability, T/C (second compound 0.003 µM, first compound 1 µM): 10.9%
- viability, T/C (second compound 0.00949 µM, first compound 0.00316 µM): 16.4%
- viability, T/C (second compound 0.00949 µM, first compound 0.01 µM): 15.7%
- viability, T/C (second compound 0.00949 µM, first compound 0.0316 µM): 15.5%
- viability, T/C (second compound 0.00949 µM, first compound 0.1 µM): 13.1%
- viability, T/C (second compound 0.00949 µM, first compound 0.316 µM): 9.97%
- viability, T/C (second compound 0.00949 µM, first compound 1 µM): 7.7%
- viability, T/C (second compound 0.03 µM, first compound 0.00316 µM): 13%
- viability, T/C (second compound 0.03 µM, first compound 0.01 µM): 11.8%
- viability, T/C (second compound 0.03 µM, first compound 0.0316 µM): 9.7%
- viability, T/C (second compound 0.03 µM, first compound 0.1 µM): 9.51%
- viability, T/C (second compound 0.03 µM, first compound 0.316 µM): 7.35%
- viability, T/C (second compound 0.03 µM, first compound 1 µM): 5.44%
- viability, T/C (second compound 0.0949 µM, first compound 0.00316 µM): 8.87%
- viability, T/C (second compound 0.0949 µM, first compound 0.01 µM): 9.53%
- viability, T/C (second compound 0.0949 µM, first compound 0.0316 µM): 8.8%
- viability, T/C (second compound 0.0949 µM, first compound 0.1 µM): 6.02%
- viability, T/C (second compound 0.0949 µM, first compound 0.316 µM): 6.17%
- viability, T/C (second compound 0.0949 µM, first compound 1 µM): 3.77%
- viability, T/C (second compound 0.3 µM, first compound 0.00316 µM): 8.98%
- viability, T/C (second compound 0.3 µM, first compound 0.01 µM): 8.98%
- viability, T/C (second compound 0.3 µM, first compound 0.0316 µM): 7.33%
- viability, T/C (second compound 0.3 µM, first compound 0.1 µM): 7.51%
- viability, T/C (second compound 0.3 µM, first compound 0.316 µM): 4.7%
- viability, T/C (second compound 0.3 µM, first compound 1 µM): 3.38%
